Substitutions are numbered along the chain they refer to. Calls of active or inactive are those of the source. No cut-off for these calls is given here.
Tests used:
[1] = target: T1, 14-3-3 protein sigma (Homo sapiens) (UniProt P31947); test: Inhibition of 14-3-3sigma binding domain in human Ba/F3 cells expressing imatibib-sensitive wild type Bcr-Abl construct assessed as inhibition of 14-3-3sigma-c-Abl interaction; type: cell-based; settings: BaF3
T1 sequence (whole entry): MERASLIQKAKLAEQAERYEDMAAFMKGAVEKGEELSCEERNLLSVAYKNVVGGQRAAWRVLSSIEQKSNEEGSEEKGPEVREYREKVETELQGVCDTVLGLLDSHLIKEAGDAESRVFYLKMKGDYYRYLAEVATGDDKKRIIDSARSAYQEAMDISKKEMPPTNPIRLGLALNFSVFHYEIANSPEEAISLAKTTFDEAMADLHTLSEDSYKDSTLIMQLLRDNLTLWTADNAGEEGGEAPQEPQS

[2] = target: T1, 14-3-3 protein sigma (Homo sapiens); test: Inhibition of 14-3-3sigma in human Ba/F3 cells expressing imatinib-sensitive wild type Bcr-Abl construct assessed as cell survival; type: cell-based; settings: BaF3
[3] = target: T2, 14-3-3 protein sigma (Mus musculus) (UniProt O70456); test: Inhibition of 14-3-3sigma in mouse 32D cells expressing imatinib-sensitive wild type Bcr-Abl construct assessed as cell survival; type: cell-based
T2 sequence (whole entry): T1 sequence (whole entry) with G28S, R82K, Q93R, E110G, N234S, Q244E

[4] = target: T1, 14-3-3 protein sigma (Homo sapiens); test: Inhibition of 14-3-3sigma binding domain in human Ba/F3 cells expressing imatibib-resistant Bcr-Abl T315I mutant construct assessed as inhibition of 14-3-3sigma-c-Abl interaction; type: cell-based; settings: BaF3
[5] = target: T1, 14-3-3 protein sigma (Homo sapiens); settings: BaF3, 1 uM
Description: Inhibition of 14-3-3sigma in human Ba/F3 cells expressing wild type Bcr-Abl construct assessed as release of full-length c-Abl from cytoplasmic complex with 14-3-3sigma at 1 uM after 24 hrs by immunoprecipitation/immunoblot technique

[6] = target: T1, 14-3-3 protein sigma (Homo sapiens); test: Inhibition of 14-3-3sigma in human Ba/F3 cells expressing imatinib-sensitive wild type Bcr-Abl construct assessed as release of full-length c-Abl from cytoplasmic complex with 14-3-3sigma at 5 uM after 24 hrs by immunoprecipitation/immunoblot technique; type: cell-based; settings: BaF3
[7] = target: T1, 14-3-3 protein sigma (Homo sapiens); test: Inhibition of 14-3-3sigma in human Ba/F3 cells expressing imatinib-sensitive wild type Bcr-Abl construct assessed as relocation of full-length c-Abl to mitochondrial membranes at 5 uM after 24 hrs by immunoprecipitation/immunoblot technique; type: cell-based; settings: BaF3
[8] = target: T1, 14-3-3 protein sigma (Homo sapiens); test: Inhibition of 14-3-3sigma in human Ba/F3 cells expressing imatinib-sensitive wild type Bcr-Abl construct assessed as nuclear import of full-length c-Abl at 5 uM after 24 hrs by immunoprecipitation/immunoblot technique; type: cell-based; settings: BaF3
[9] = target: T1, 14-3-3 protein sigma (Homo sapiens); test: Inhibition of 14-3-3sigma in human Ba/F3 cells expressing imatinib-sensitive wild type Bcr-Abl construct assessed as cleaved c-Abl at mitochondrial membranes at 5 uM after 24 hrs by immunoprecipitation/immunoblot technique; type: cell-based; settings: BaF3
14-3-3 protein sigma = target: T3, 14-3-3 protein sigma (Homo sapiens, UniProt P31947); test: Binding affinity to histidine-tagged human recombinant 14-3-3sigma by transferred NOESY analysis
T3 sequence (P31947 whole entry): T1 sequence (whole entry)

Work on Cc1ccc(-c2cc(-c3ccccc3)nc(N/N=C/c3cc([N+](=O)[O-])ccc3O)n2)cc1 yielded an LD50 [1] of 0.65 µM, an LD50 [2] of 0.65 µM and an LD50 [3] of 2.84 µM.

Work on Cc1c(NC(=O)c2cc(C(=O)O)ccc2C(=O)O)c(=O)n(-c2ccccc2)n1C yielded an LD50 [4] of 1.47 µM and an LD50 [1] of 1.04 µM.

Cc1ccc(NC(=O)c2ccc(CN3CCN(C)CC3)cc2)cc1Nc1nccc(-c2cccnc2)n1 was tested, and the inhibition [5] was “Active”.

CCCCCCOC(=O)c1ccc(Nc2c([N+](=O)[O-])cc(C(=O)O)cc2[N+](=O)[O-])cc1 was tested, and the LD50 [4] was 1.7 µM, the inhibition [6] was “Active” and the inhibition [7] was “Active”. The inhibition [8] was “Active”, the LD50 [1] was 1.41 µM and the inhibition [9] was “Active”. For the same molecule, the Kd (14-3-3 protein sigma) was > 1000 nM.

Reference: ChEMBL document CHEMBL1909530, “Computational techniques are valuable tools for the discovery of protein-protein interaction inhibitors: the 14-3-3σ case” (Bioorg Med Chem Lett, 2011)
